According to a compilation of properties of binary mixtures (doi:10.1016/j.molliq.2016.05.033):

Assay: xn = mol fraction of the nth substance listed
Conditions: 101 kPa

**Q.** What does the source list for `CNc1ccccc1` + CCCC[n+]1ccn(C)c1.F[B-](F)(F)F?
**A.** speed of sound (293.15 K, x1 = 0.0974): 1578.7 m/s; speed of sound (293.15 K, x1 = 0.3968): 1584.9 m/s; speed of sound (293.15 K, x1 = 0.592): 1594.9 m/s; speed of sound (293.15 K, x1 = 0.697): 1602.1 m/s; speed of sound (293.15 K, x1 = 0.7972): 1601.6 m/s; speed of sound (293.15 K, x1 = 0.8999): 1594.2 m/s; speed of sound (293.15 K, x1 = 1): 1582.7 m/s; speed of sound (303.15 K, x1 = 0.0974): 1554.2 m/s; speed of sound (303.15 K, x1 = 0.3968): 1560.6 m/s; speed of sound (303.15 K, x1 = 0.5009): 1562 m/s; speed of sound (303.15 K, x1 = 0.592): 1566.3 m/s; speed of sound (303.15 K, x1 = 0.697): 1571.4 m/s; speed of sound (303.15 K, x1 = 0.7972): 1570 m/s; speed of sound (303.15 K, x1 = 0.8999): 1559.5 m/s; speed of sound (313.15 K, x1 = 0.2093): 1531.6 m/s; speed of sound (313.15 K, x1 = 0.2979): 1532.2 m/s; speed of sound (313.15 K, x1 = 0.3968): 1534.8 m/s; speed of sound (313.15 K, x1 = 0.592): 1537.9 m/s; speed of sound (313.15 K, x1 = 0.697): 1540.1 m/s; speed of sound (313.15 K, x1 = 0.7972): 1537.7 m/s; speed of sound (313.15 K, x1 = 0.8999): 1524.9 m/s; speed of sound (313.15 K, x1 = 1): 1511.6 m/s; speed of sound (323.15 K, x1 = 0.0974): 1507.2 m/s; speed of sound (323.15 K, x1 = 0.2093): 1507.9 m/s; speed of sound (323.15 K, x1 = 0.2979): 1508.4 m/s; speed of sound (323.15 K, x1 = 0.3968): 1509.7 m/s; speed of sound (323.15 K, x1 = 0.5009): 1510.5 m/s; speed of sound (323.15 K, x1 = 0.7972): 1504.7 m/s; speed of sound (323.15 K, x1 = 1): 1476.4 m/s

**Q.** Which results are given for `CCCC[n+]1ccn(C)c1.F[B-](F)(F)F` + CNc1ccccc1?
**A.** speed of sound (293.15 K, x2 = 0): 1577.5 m/s; speed of sound (303.15 K, x2 = 0): 1553.1 m/s; speed of sound (313.15 K, x2 = 0): 1529.6 m/s; speed of sound (323.15 K, x2 = 0): 1506.8 m/s
